Read-outs that look alike come from different tables or passages of the source.
Experiments:
[1] = in vivo; cited from earlier work
[2] = design: species or system human; conditions: in vivo
Experimental: Total lipid content in placental tissue was determined according to Smedes (1999), while enzymatic lipid determination of triglyceride and cholesterol was performed on the plasma samples and total lipid was calculated as described by Covaci et al (2006).

[3] = design: method as in PMID 11999784; conditions: cited from earlier work
human placenta [4] = tested on: human placenta
Experimental: The study was approved by the regional Ethics Committee (KF 01-145/03 + KF(11) 260063) and the Data Protection Agency. All mothers gave informed written consent. […] The placentas were injected with a Krebs Ringer buffer containing heparin (5000 IU/ml, 5 ml/l medium) to prevent any remaining blood in fetal vessels from coagulating. The perfusions were performed in a dual perfusion system as previously described. […] Next, the lobule containing the perfused cotyledon was cut from the placenta (9 cm diameter) and placed in the perfusion chamber. The maternal circulation was connected by blunt cannulation of the intervillous space surrounding the perfused cotyledon. The perfusion media (100 mL each in fetal and maternal reservoirs) were circulated by peristaltic pumps and consisted of Krebs Ringer Buffer containing heparin (5000 IU/mL, Copenhagen University Hospital Pharmacy, 5 mL/L medium), glucose (0.6 g/100 mL), Pen-Strep (1% Substrate department standard solution, Panum Institute Copenhagen) and physiological levels of Human Serum Albumin (20% solution, CSL Behring Gmbh, dialysed in Krebs Ringer Buffer, maternal reservoir: 30 g/L; fetal reservoir: 40 g/L) and gassed with 95% O2/5% CO2 and 95% N2/5% CO2 in the maternal and fetal reservoirs, respectively. […] After at least 30 minutes of pre-perfusion to stabilise temperature and oxygen content, BDE-47, BDE-99 and BDE-209 (Cambridge Isotopes Laboratories, 1 μg/mL in ethanol, 100 μL added; final concentration of 1 ng/mL) and the positive control substance antipyrine dissolved in H2O (Aldrich-Chemie, Germany; final concentration of 100 μg/mL) were added to the maternal reservoir. The applied concentrations of PBDEs were a compromise between achieving final levels relatively close to in vivo levels and having a detection frequency close to 100%. […] The perfusions were run for four hours, and 6 mL were sampled at t = 0 from the maternal circulation and from both reservoirs before addition of the compounds and at 2, 30, 60, 130, 190 and 240 minutes after addition of the compounds. The sampled volume was not replaced.
The pH (7.2-7.4), glucose and lactate concentrations (glucose > 6 mM), and O2 tension in the maternal perfusion medium (30-35 kPa), in the fetal perfusion medium (10-15 kPa), and in the fetal venous outflow (15-20 kPa) were measured every 30 minutes using an ABL5 blood gas analyser (Radiometer, Denmark). Adjustments were made using 1 M HCl or 1 M NaOH to adjust pH, glucose solution (2,61 g/L) and increasing or decreasing the rate of 95% N2/5% CO2 gassing in the fetal perfusate or 95% O2/5% CO2 gassing in the maternal perfusate to adjust pO2 after each measurement.
In addition to the perfusion samples, the three PBDE congeners were analysed in umbilical cord blood and in the placental tissue before and after the perfusion. Samples of umbilical cord blood were taken if possible and processed to collect plasma. Subsamples of the placental tissue were taken before perfusion as well as from the cotyledon and the surrounding tissue after perfusion. Prior to placenta perfusions, adsorption tests had been performed: The chambers and tubes were perfused without placental tissue to investigate loss of substance during the perfusion, for instance through adsorption to the perfusion system.

human placenta [5] = conditions: cited from earlier work

For Brc1c(Br)c(Br)c(Oc2c(Br)c(Br)c(Br)c(Br)c2Br)c(Br)c1Br [BDE-209, decabromo diphenyl ether], the “median level in placental tissue” value [1] is listed as 1.14 ng/g lw, the “observed blood levels, Denmark” value [1] is listed as ~ 0.014 ng/ml and the “observed blood levels, elsewhere” value [1] is listed as 0.009 to 0.15 ng/mL. The “Non-perfused placental tissue level” value [2] was “< LOQ”, the “Umbilical cord plasma level” value [2] was “< LOQ” and the logKow [3] was at least 10. For the same compound, the “Cotyledon (perfused tissue) level” value (human placenta [4]; 4 h, 1 ng/mL) was 107.8 (64.2-159.5) ng/g lw, the “Surrounding placental tissue level” value (human placenta [4]; 4 h, 1 ng/mL) was 22.2 (16.3-31.8) ng/g lw and the “concentration in perfused cotyledon relative to background” value (human placenta [4]; 4 h, 1 ng/mL) was 20 times. For the same compound, the “concentration in surrounding tissue relative to background” value (human placenta [4]; 4 h, 1 ng/mL) was 100 times, the “mass balance: amount unaccounted for (system adsorption)” value (human placenta [4]; 4 h, 1 ng/mL) was -8% and the “mass balance: fraction of added amount in cotyledon” value (human placenta [4]; 4 h, 1 ng/mL) was 24%. The “mass balance: fraction of added amount in fetal circulation” value (human placenta [4]; 4 h, 1 ng/mL) was 0%, the “mass balance: fraction of added amount in maternal circulation” value (human placenta [4]; 4 h, 1 ng/mL) was 27% and the “mass balance: fraction of added amount in surrounding placental tissue” value (human placenta [4]; 4 h, 1 ng/mL) was 19%. For the same compound, the “mass balance: fraction of added amount removed by sampling” value (human placenta [4]; 4 h, 1 ng/mL) was 38%.

For Cc1cc(=O)n(-c2ccccc2)n1C [antipyrine, reference compound], the “indicative permeability coefficient (IPC)” value (human placenta [5]) is given as 0.94 h⁻¹ and the “FM-ratio at 190 min” value (human placenta [4]; 190 min, 100 µg/mL) is given as 1.04.

For c1ccc2c(c1)cc1ccc3cccc4ccc2c1c34 [benzo(a)pyrene], the “indicative permeability coefficient (IPC)” value (human placenta [5]; human placenta perfusion) is given as 0.08 h⁻¹.

For Cn1c(=O)c2c(ncn2C)n(C)c1=O [caffeine], the “indicative permeability coefficient (IPC)” value (human placenta [5]; not told) is given as 1.03 h⁻¹.

In the case of O=C(O)CNCP(=O)(O)O [glyphosate], the “indicative permeability coefficient (IPC)” value (human placenta [5]; perfused in the same human placenta model) is listed as 0.11 h⁻¹.
